Laboratory results as given in patent US8450305B2, “Macrocyclic compounds useful as inhibitors of kinases and HSP90” (Universite de Strasbourg, priority 2006, dated 2013).

Key:
Type in all cases: biochemical
CDK4/CycD1 = target: T1, CDK4/CycD1 (Homo sapiens, UniProt P11802); experiment: Radiometric protein kinase assay, CDK4/CycD1; details: 1 μM ATP; read-out: Inhibitory activity (IC50:μM) CDK4/CycD1
T1 construct: host or cells: Sf9 insect cells (baculovirus)
Description: (§1) All protein kinases were expressed in Sf9 insect cells as human recombinant GST-fusion proteins or His-tagged proteins by means of the baculovirus expression system. Kinases were purified by affinity chromatography using either GSH-agarose (Sigma) or Ni-NTH-agarose (Qiagen). The purity of each kinase was checked by SDS-PAGE/silver staining and the identity of each kinase was verified by western blot analysis with kinase specific antibodies or by mass spectroscopy.
(§2) A radiometric protein kinase assay (^33PanQinase® Activity Assay) was used for measuring the kinase activity of the 24 protein kinases. All kinase assays were performed in 96-well FlashPlates™ from Perkin Elmer (Boston, Mass., USA) in a 50 μl reaction volume. The reaction cocktail was pipetted in 4 steps in the following order: • 20 μl of assay buffer • 5 μl of ATP solution (in H2O) • 5 μl of test compound (in 10% DMSO) • 10 μl of substrate/10 […] of enzyme solution (premixed)
(§3) The assay for all enzymes contained 60 mM HEPES-NaOH, pH 7.5, 3 mM MgCl2, 3 mM MnCl2, 3 μM Na-orthovanadate, 1.2 mM DTT, 50 μg/ml PEG20000, 1 μM [γ-^33P]-ATP (approx. 5×10^05 cpm per well).
(§4) For the 24 kinase assays, the following amounts of enzyme and substrate were used per well:
(§5) The reaction cocktails were incubated at 30° C. for 80 minutes. The reaction was stopped with 50 μl of 2% (v/v) H3PO4, plates were aspirated and washed two times with 200 μl of 0.9% (w/v) NaCl or 200 μl H2O. Incorporation of ^33Pi was determined with a microplate scintillation counter (Microbeta Trilux, Wallac).
(§6) The median value of the counts in column 1 (n=8) of each assay plate was defined as “low control”. This value reflects unspecific binding of radioactivity to the plate in the absence of a protein kinase but in the presence of the substrate. The median value of the counts in column 7 of each assay plate (n=8) was taken as the “high control”, i.e. full activity in the absence of any inhibitor. The difference between high and low control was taken as 100% activity.
(§7) As part of the data evaluation the low control value from a particular plate was subtracted from the high control value as well as from all 80 “compound values” of the corresponding plate. The residual activity (in %) for each well of a particular plate was calculated by using the following formula: Res. Activity (%)=100×[(cpm of compound−low control)/(high control−low control)]
(§8) The residual activities for each concentration and the compound IC50 values were calculated using Quattro Workflow V2.1.0.0 (Quattro Research GmbH, Munich, Germany; www.quattro-research.com). The model used was “Sigmoidal response (variable slope)” with parameters “top” fixed at 100% and “bottom” at 0%.

Aurora-B = target: T2, Aurora-B (Homo sapiens, UniProt Q96GD4); experiment: Radiometric protein kinase assay, Aurora-B; details: 1 μM ATP; read-out: Inhibitory activity (IC50:μM) Aurora-B
T2 construct: host or cells: Sf9 insect cells (baculovirus)
Description: as §1, §2, §3, §4, §5, §6, §7, §8

Aurora-A = target: T3, Aurora-A (Homo sapiens, UniProt O14965); experiment: Radiometric protein kinase assay, Aurora-A; details: 1 μM ATP; read-out: Inhibitory activity (IC50:μM) Aurora-A
T3 construct: host or cells: Sf9 insect cells (baculovirus)
T3 sequence (O14965 1-403): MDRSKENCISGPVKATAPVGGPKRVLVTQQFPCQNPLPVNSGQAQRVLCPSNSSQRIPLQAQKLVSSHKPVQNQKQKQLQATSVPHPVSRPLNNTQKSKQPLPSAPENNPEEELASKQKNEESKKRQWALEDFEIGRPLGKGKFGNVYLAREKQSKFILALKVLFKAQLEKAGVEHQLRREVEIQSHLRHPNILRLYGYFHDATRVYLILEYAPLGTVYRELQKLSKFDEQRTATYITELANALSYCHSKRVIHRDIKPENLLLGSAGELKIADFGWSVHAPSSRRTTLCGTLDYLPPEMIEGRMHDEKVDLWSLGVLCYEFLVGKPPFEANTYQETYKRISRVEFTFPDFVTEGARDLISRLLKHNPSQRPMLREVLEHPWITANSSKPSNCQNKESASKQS
Description: as §1, §2, §3, §4, §5, §6, §7, §8

SRC = target: T4, SRC (Homo sapiens, UniProt P12931); experiment: Radiometric protein kinase assay, SRC; details: 1 μM ATP; read-out: Inhibitory activity (IC50:μM) SRC
T4 construct: host or cells: Sf9 insect cells (baculovirus)
Description: as §1, §2, §3, §4, §5, §6, §7, §8

EPHB4 = target: T5, EPHB4 (Homo sapiens, UniProt P54760); experiment: Radiometric protein kinase assay, EPHB4; details: 1 μM ATP; read-out: Inhibitory activity (IC50:μM) EPHB4
T5 construct: host or cells: Sf9 insect cells (baculovirus)
T5 sequence (P54760 16-987): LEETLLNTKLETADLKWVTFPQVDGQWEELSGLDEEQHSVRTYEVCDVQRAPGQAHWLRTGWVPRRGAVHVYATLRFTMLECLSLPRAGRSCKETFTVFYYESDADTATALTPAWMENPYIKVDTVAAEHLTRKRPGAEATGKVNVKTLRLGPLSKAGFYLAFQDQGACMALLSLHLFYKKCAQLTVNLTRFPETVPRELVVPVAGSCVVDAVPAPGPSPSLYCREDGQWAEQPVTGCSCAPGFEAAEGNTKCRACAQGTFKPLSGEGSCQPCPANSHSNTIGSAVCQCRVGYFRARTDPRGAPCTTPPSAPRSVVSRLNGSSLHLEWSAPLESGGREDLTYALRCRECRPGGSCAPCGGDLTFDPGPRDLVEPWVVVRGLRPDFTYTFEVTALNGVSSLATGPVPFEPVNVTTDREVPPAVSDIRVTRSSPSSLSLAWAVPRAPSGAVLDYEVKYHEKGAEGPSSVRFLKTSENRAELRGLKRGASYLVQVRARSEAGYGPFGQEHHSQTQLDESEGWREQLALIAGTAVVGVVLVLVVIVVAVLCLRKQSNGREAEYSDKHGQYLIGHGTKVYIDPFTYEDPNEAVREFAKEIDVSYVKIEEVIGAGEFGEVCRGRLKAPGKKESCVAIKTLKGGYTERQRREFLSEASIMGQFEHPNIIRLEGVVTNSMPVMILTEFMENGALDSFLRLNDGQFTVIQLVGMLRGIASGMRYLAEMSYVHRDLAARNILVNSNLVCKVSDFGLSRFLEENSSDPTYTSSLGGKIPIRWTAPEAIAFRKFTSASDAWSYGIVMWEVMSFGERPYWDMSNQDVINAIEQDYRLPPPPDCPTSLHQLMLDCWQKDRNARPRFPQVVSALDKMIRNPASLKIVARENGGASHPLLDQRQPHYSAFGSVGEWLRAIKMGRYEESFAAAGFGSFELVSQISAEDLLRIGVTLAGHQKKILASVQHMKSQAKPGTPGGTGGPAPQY
Description: as §1, §2, §3, §4, §5, §6, §7, §8

T2 sequence (Q96GD4 whole entry): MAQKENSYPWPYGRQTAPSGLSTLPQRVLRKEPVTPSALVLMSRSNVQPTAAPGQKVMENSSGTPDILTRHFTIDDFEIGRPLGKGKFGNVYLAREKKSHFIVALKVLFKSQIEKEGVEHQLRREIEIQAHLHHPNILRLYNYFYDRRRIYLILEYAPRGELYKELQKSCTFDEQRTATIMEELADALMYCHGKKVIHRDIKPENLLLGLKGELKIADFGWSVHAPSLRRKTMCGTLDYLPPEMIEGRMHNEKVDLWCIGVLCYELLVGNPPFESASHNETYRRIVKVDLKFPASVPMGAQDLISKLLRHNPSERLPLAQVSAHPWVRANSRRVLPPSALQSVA
T4 sequence (P12931 whole entry): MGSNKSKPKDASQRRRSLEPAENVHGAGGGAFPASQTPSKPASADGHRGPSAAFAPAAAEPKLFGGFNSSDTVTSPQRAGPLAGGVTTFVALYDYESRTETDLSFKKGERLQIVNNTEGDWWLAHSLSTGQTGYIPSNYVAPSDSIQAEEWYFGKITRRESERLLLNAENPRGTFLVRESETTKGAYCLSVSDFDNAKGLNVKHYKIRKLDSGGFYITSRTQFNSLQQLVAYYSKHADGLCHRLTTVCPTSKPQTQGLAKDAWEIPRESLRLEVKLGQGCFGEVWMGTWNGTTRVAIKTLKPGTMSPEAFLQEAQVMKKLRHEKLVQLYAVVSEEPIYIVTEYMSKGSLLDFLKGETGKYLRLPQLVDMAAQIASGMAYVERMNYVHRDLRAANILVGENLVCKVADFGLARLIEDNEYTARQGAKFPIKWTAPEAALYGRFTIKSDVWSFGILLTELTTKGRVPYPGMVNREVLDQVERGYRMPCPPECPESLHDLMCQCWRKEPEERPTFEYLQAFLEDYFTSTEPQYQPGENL
T1 sequence (P11802 whole entry): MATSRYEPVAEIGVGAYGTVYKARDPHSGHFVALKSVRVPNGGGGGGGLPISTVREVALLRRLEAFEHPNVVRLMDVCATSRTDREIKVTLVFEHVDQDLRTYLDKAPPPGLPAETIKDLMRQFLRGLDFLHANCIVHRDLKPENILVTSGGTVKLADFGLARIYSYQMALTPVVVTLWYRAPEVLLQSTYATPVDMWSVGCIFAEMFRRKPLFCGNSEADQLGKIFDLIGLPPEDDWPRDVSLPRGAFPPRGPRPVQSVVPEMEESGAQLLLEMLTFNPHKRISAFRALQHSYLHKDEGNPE
T1 sequence (P24385 whole entry partner): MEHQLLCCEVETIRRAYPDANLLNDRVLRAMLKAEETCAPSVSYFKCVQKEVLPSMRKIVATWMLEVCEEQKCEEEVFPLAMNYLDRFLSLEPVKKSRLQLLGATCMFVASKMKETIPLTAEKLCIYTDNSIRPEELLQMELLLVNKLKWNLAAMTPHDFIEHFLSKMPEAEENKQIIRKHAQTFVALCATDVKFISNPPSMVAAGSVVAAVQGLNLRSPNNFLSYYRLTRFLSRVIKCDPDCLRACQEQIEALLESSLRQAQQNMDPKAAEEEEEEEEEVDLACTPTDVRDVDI

SMILES	IC50 (CDK4/CycD1)	IC50 (Aurora-B)	IC50 (Aurora-A)	IC50 (SRC)	IC50 (EPHB4)
CC(C)[C@@H]1CC2OC2CC/C=C/C(=O)Cc2c(Cl)c(O)cc(O)c2C(=O)O1 (some centres unmarked) [A-4]	48 µM	36 µM	30 µM	12 µM	–
COC1CC/C=C/C[C@H](c2ccccc2)OC(=O)c2c(O)cc(O)c(Cl)c2CC(=O)C1 (some centres unmarked) [A-2]	50 µM	16 µM	14 µM	–	16 µM
O=C1/C=C/CCC2OC2C[C@H](c2ccccc2)OC(=O)c2c(O)cc(O)c(Cl)c2C1 (some centres unmarked) [A-5]	45 µM	–	47 µM	12 µM	49 µM

Stronger by IC50 (CDK4/CycD1), values ahead:

IC50 (CDK4/CycD1)	IC50 (Aurora-B)	IC50 (Aurora-A)	IC50 (SRC)	IC50 (EPHB4)	SMILES
30 µM	14 µM	–	14 µM	40 µM	O=C1Cc2c(Cl)c(O)cc(O)c2C(=O)O[C@H](c2ccccc2)C/C=C/CCC(Cl)C1 (some centres unmarked) [A-3]
37 µM	16 µM	–	20 µM	40 µM	O=C1/C=C/CCC2OC2C[C@@H](Cc2ccccc2)OC(=O)c2c(O)cc(O)cc2C1 (some centres unmarked) [A-6]
